How the values were obtained:
SH-SY5Y nerve cells [1] = experiment: L-glutamic acid-damaged SH-SY5Y cell model (MTT); type: cell-based; conditions: summary in words
Method: (§1) 2.1 Method for Culturing SH-SY5Y Nerve Cells
(§2) The SH-SY5Y nerve cells were cultured in a DMEM culture medium (containing 5% of fetal calf serum in volume fraction) in an incubator containing 5% CO2 at 37° C., while subculturing every 3 to 4 days. Cells in a logarithmic phase were selected for experiments.
2.3 Method for Screening with L-Glutamic Acid-Damaged Models
SH-SY5Y cells were inoculated at a concentration of 5×10^3 in a 96-well plate, and then cultured for 24 h, and 100 μL of a liquid culture medium containing L-glutamic acid and a crocin-like compound was added to a 96-well plate, such that a final concentration of L-glutamic acid was 160 mM and a final medication concentration of the crocin-like compound was 10 μM, 1 μM, 0.1 μM, with each concentration in triplicate, followed by culturing for 24 h. After 24 h, a supernatant was sucked out and discarded, to each well was added 100 μL of MTT (0.5 mg/mL), followed by incubation for 4 h. A supernatant was sucked out and discarded, to each well was added 150 μL of DMSO, followed by shaking for 10 min, and a wavelength of 570 nm was selected to measure a value of absorbancy on a microplate reader^[13]. (Effective rate %=(ODcrocin-like compound−ODmodel)/(ODcontrol−ODmodel)*100).

SH-SY5Y nerve cells [2] = experiment: Hydrogen peroxide-damaged SH-SY5Y cell model (MTT); type: cell-based; conditions: summary in words
Method: as §1, §2
2.2 Method for Screening with Hydrogen Peroxide-Damaged Models
SH-SY5Y cells were inoculated at a concentration of 5×10^3 in a 96-well plate, and then cultured for 24 h, and 100 μL of a liquid culture medium containing H2O2 and a crocin-like compound was added to the 96-well plate, such that a final concentration of H2O2 was 400 μM and a final concentration of the crocin-like compound was 10 μM, 1 μM, 0.1 μM, with each concentration in triplicate, followed by culturing for 24 h. After 24 h, a supernatant was sucked out and discarded, and to each well was added 100 μL of MTT (0.5 mg/mL), followed by incubation for 4 h. A supernatant was sucked out and discarded, to each well was added 150 μL of DMSO, followed by shaking for 10 min, and a wavelength of 570 nm was selected to measure a value of absorbancy on a microplate reader^[12]. (Effective rate %=(ODcrocin-like compound−ODmodel)/(ODcontrol−ODmodel)*100).

PC-12 cells = conditions: antioxidant effect (GSH increase, inhibition of peroxidized lipid, SOD retained); cited from earlier work

CC(/C=C/C=C(\C)C(=O)O[C@@H]1OC(CO[C@@H]2OC(CO)[C@@H](O)C(O)C2O)[C@@H](O)C(O)C1O)=C\C=C\C=C(C)\C=C\C=C(/C)C(=O)O[C@@H]1[C@@H](O)C[C@](O)(C(=O)O)C[C@H]1OC(=O)/C=C/c1ccc(O)c(O)c1 (stereo in doubt) [GJ-1, neocrocin B]
protection effect on SY5Y cell damage models induced by L-glutamic acid (SH-SY5Y nerve cells [1]): more excellent protection effects

COc1cc(/C=C/C(=O)OCC2O[C@@H](OCC3O[C@@H](OC(=O)/C(C)=C/C=C/C(C)=C/C=C/C=C(C)/C=C/C=C(\C)C(=O)O[C@@H]4OC(CO[C@@H]5OC(CO)[C@@H](O)C(O)C5O)[C@@H](O)C(O)C4O)C(O)C(O)[C@@H]3O)C(O)C(O)[C@@H]2O)cc(OC)c1O (stereo partly shown) [GJ-6, neocrocin G]
protection effect on SY5Y cell damage models induced by L-glutamic acid (SH-SY5Y nerve cells [1]): more excellent protection effects
protection effect on SY5Y cell damage models induced by H2O2 (SH-SY5Y nerve cells [2]): more excellent protection effects

COc1cc(/C=C/C(=O)OCC2O[C@@H](OCC3O[C@@H](OC(=O)/C(C)=C/C=C/C(C)=C/C=C/C=C(C)/C=C/C=C(\C)C(=O)O)C(O)C(O)[C@@H]3O)C(O)C(O)[C@@H]2O)cc(OC)c1O (stereo partly shown) [GJ-7, neocrocin F]
protection effect on SY5Y cell damage models induced by L-glutamic acid (SH-SY5Y nerve cells [1]): more excellent protection effects

CCOC(=O)/C(C)=C/C=C/C(C)=C/C=C/C=C(C)/C=C/C=C(\C)C(=O)O[C@@H]1O[C@H](CO[C@@H]2O[C@H](CO)[C@@H](O)[C@H](O)[C@H]2O)[C@@H](O)[C@H](O)[C@H]1O [GJ-8, neocrocin H]
protection effect on SY5Y cell damage models induced by L-glutamic acid (SH-SY5Y nerve cells [1]): more excellent protection effects
protection effect on SY5Y cell damage models induced by H2O2 (SH-SY5Y nerve cells [2]): more excellent protection effects

C\C(C=O)=C/C=C/C(C)=C/C=C/C=C(C)/C=C/C=C(\C)C(=O)O[C@@H]1OC(CO[C@@H]2OC(CO)[C@@H](O)C(O)C2O)[C@@H](O)C(O)C1O (stereo partly shown) [GJ-9, neocrocin I]
protection effect on SY5Y cell damage models induced by L-glutamic acid (SH-SY5Y nerve cells [1]): more excellent protection effects

CC(/C=C/C=C(\C)C(=O)O)=C\C=C\C=C(C)\C=C\C=C(/C)C(=O)O[C@@H]1OC(CO[C@@H]2OC[C@@H](O)C(O)C2O)[C@@H](O)C(O)C1O (stereo partly shown) [GJ-10, neocrocin J]
protection effect on SY5Y cell damage models induced by L-glutamic acid (SH-SY5Y nerve cells [1]): more excellent protection effects
protection effect on SY5Y cell damage models induced by H2O2 (SH-SY5Y nerve cells [2]): more excellent protection effects

CC(/C=C/C=C(\C)C(=O)O[C@@H]1O[C@H](CO[C@@H]2O[C@H](CO)[C@@H](O)[C@H](O)[C@H]2O)[C@@H](O)[C@H](O)[C@H]1O)=C\C=C\C=C(C)\C=C\C=C(/C)C(=O)O[C@@H]1O[C@H](CO[C@@H]2O[C@H](CO)[C@@H](O)[C@H](O)[C@H]2O)[C@@H](O)[C@H](O)[C@H]1O [crocin-1, crocin digentiobioside]
protective effect on PC-12 cells (PC-12 cells): protective effect on PC-12 cells

Reference: patent US11440931B2, “Crocins compounds and uses thereof” (Jinan University, priority 2016, dated 2022)
